Data set [1] in a line: Metabolic stability in human liver microsomes at 1 uM after 30 mins. The class given is ADME. The note with it: read-out: Stability. Background: Liver microsomes are a subcellular fraction often used to study metabolism.
A further data set concerns the target Cytochrome P450 3A4 (Homo sapiens, UniProt P08684). The data set is described as follows: Inhibition of CYP3A4 (unknown origin) after 5 mins. It is filed as ADME.
For a further data set, the target named is Cytochrome P450 2D6 (Homo sapiens, UniProt P10635). In words: Inhibition of CYP2D6 (unknown origin) after 10 mins. The class given is ADME.
Data set [2] has as its target Gamma-secretase. In words: Modulation of gamma-secretase in HEK293 cells expressing guinea pig Swedish mutant SFV-APP695sw assessed as inhibition of amyloid beta-42 production after 16 to 18 hrs by HTRF assay. It is filed as cell-based, Homo sapiens.
Data set [3] can be described thus: Ratio of drug level in brain to plasma in mouse at 10 mg/kg, po after 2 hrs. It is filed as ADME, organism-based. Also on record: dose 10 mg/kg, route oral. Particulars: read-out: BPR.
A short description of data set [4]: Metabolic stability in rat liver microsomes at 1 uM after 30 mins. The note with it: read-out: Stability. It is filed as ADME.
The nature of data set [5]: Apparent permeability in pig LLC-PK1 cells. The class given is ADME, cell-based, Sus scrofa.
Data set [6] in a line: Drug level in Sprague-Dawley rat CSF. The class given is ADME, Cerebrospinal fluid. Particulars: in vivo, read-out: Ct.
Data set [7] has as its system Rattus norvegicus. In words: Reduction of amyloid beta-42 level in Sprague-Dawley rat CSF at 100 mg/kg, po after 4 hrs by immunoassay relative to control. The class given is functional. Set-up: scale not given: the % may be the effect or the level left.
Data set [8] concerns Plasma. In words: Unbound plasma concentration in Sprague-Dawley rat. The class given is ADME, cell-free.
Data set [9] is described as follows: Ratio of drug level in brain to plasma in Sprague-Dawley rat. It is filed as ADME, cell-free. Particulars: read-out: BPR.
The subject of data set [10] is Plasma. The data set is described as follows: Drug uptake in Sprague-Dawley rat plasma at 100 mg/kg, po after 4 to 36 hrs by LC/MS analysis. It is filed as ADME, organism-based. Set-up: dose 100 mg/kg, route oral. The note with it: in vivo.
The nature of data set [11]: Volume of distribution at steady state in cynomolgus monkey at 2 mg/kg, iv. Particulars: in vivo, read-out: Vdss. Set-up: dose 2 mg/kg, route intravenous. The class given is ADME, organism-based, Macaca fascicularis.
The test system of data set [12] is Rattus norvegicus. The data set is described as follows: Reduction of amyloid beta level in Sprague-Dawley rat CSF at 100 mg/kg, po after 36 hrs by immunoassay. Set-up: dose 100 mg/kg. It is filed as functional, organism-based.
The subject of data set [13] is Rattus norvegicus. In words: Toxicity in Sprague-Dawley rat assessed as histopathological changes at 30 to 300 mg/kg, po after 4 days by light microscopic analysis. The class given is organism-based. Set-up: dose 30-300 mg/kg, route oral. Particulars: in vivo, 96 h.
Data set [14] deals with Gamma-secretase (Homo sapiens) (UniProt Q96BI3+Q9NZ42+Q8WW43+P49768+Q92542+P49810). In words: Selectivity ratio of IC50 for gamma-secretase-mediated notch processing in HEK293 cells by dual-cell luciferase reporter gene assay to IC50 for gamma-secretase-mediated amyloid beta-42 production in HEK293 cells by HTRF assay. The class given is cell-based.
A short description of data set [15]: Ratio of unbound plasma concentration in Sprague-Dawley rat to gamma-secretase-mediated amyloid beta-42 production in HEK293 cells. It is filed as ADME, cell-based.
A short description of data set [16]: Efflux ratio of apparent permeability in pig LLC-PK1 cells. The class given is ADME, cell-based, Sus scrofa.
Data set [17] concerns Rattus norvegicus. The data set is described as follows: Reduction of amyloid beta-42 level in Sprague-Dawley rat CSF at 100 mg/kg, po after 24 hrs by immunoassay relative to control. It is filed as functional. Also on record: scale not given: the % may be the effect or the level left.
Data set [18] in a line: Oral bioavailability in rat at 5 mg/kg. The class given is ADME, organism-based. The note with it: in vivo.
In data set [19] the test system is Rattus norvegicus. The data set is described as follows: Reduction of amyloid beta-42 level in Sprague-Dawley rat brain at 100 mg/kg, po after 4 hrs by immunoassay relative to control. Set-up: scale not given: the % may be the effect or the level left. It is filed as functional.
Data set [20] relates to Rattus norvegicus. In words: Toxicity in Sprague-Dawley rat assessed as notch-associated effects at 30 to 300 mg/kg, po after 4 days by light microscopic analysis. The class given is organism-based. Also on record: dose 30-300 mg/kg, route oral. The note with it: in vivo, 96 h.
The test system of data set [21] is Rattus norvegicus. In words: Reduction of amyloid beta-42 level in Sprague-Dawley rat CSF at 30 mg/kg, po after 24 hrs by immunoassay relative to control. It is filed as functional. Set-up: scale not given: the % may be the effect or the level left.
Data set [22] can be described thus: Clearance in rat at 2 mg/kg, iv. Set-up: dose 2 mg/kg, route intravenous. The class given is ADME, organism-based. The note with it: in vivo.
Data set [23] is described as follows: Volume of distribution at steady state in rat at 2 mg/kg, iv. It is filed as ADME, organism-based. Also on record: dose 2 mg/kg, route intravenous. The note with it: in vivo, read-out: Vdss.
Data set [24] is described as follows: Clearance in cynomolgus monkey at 2 mg/kg, iv. It is filed as ADME, organism-based, Macaca fascicularis. Also on record: dose 2 mg/kg, route intravenous. Particulars: in vivo.
Data set [25] deals with Plasma. In words: Unbound plasma concentration in Sprague-Dawley rat at 300 mg/kg. The class given is ADME, organism-based. Set-up: dose 300 mg/kg. The note with it: in vivo.
Data set [26] can be described thus: Half life in cynomolgus monkey at 2 mg/kg, iv. Particulars: in vivo. Also on record: dose 2 mg/kg, route intravenous. The class given is ADME, organism-based, Macaca fascicularis.
Data set [27] can be described thus: Half life in rat at 2 mg/kg, iv. The class given is ADME, organism-based. Set-up: dose 2 mg/kg, route intravenous. Particulars: in vivo.
A further data set has as its system Brain. In words: Drug uptake in Sprague-Dawley rat brain at 100 mg/kg, po after 4 to 36 hrs by LC/MS analysis. The class given is ADME, organism-based. Also on record: dose 100 mg/kg, route oral. The note with it: in vivo.
Data set [28] concerns Rattus norvegicus. In words: Reduction of amyloid beta-40 level in Sprague-Dawley rat brain at 100 mg/kg, po after 4 hrs by immunoassay. It is filed as functional, organism-based. Set-up: dose 100 mg/kg.
Data set [29] concerns the target Gamma-secretase. In words: Modulation of gamma-secretase in HEK293 cells expressing guinea pig Swedish mutant SFV-APP695sw assessed as inhibition of amyloid beta-40 production after 16 to 18 hrs by HTRF assay. The class given is cell-based, Homo sapiens.
For data set [30], the target named is Gamma-secretase. The data set is described as follows: Modulation of gamma-secretase in HEK293 cells expressing guinea pig Swedish mutant SFV-APP695sw coexpressing DLL4 assessed as inhibition of notch processing in human TE671 cells after 3 days by dual-cell luciferase reporter gene assay. It is filed as cell-based. A general note: In a reporter assay the amount or activity of a reporter protein is the signal.

In data set [31] the test system is Rattus norvegicus. In words: Reduction of amyloid beta-42 level in Sprague-Dawley rat CSF at 300 mg/kg, po after 24 hrs by immunoassay relative to control. The class given is functional. Set-up: scale not given: the % may be the effect or the level left.
Data set [32] concerns Rattus norvegicus. In words: Reduction of amyloid beta-40 level in Sprague-Dawley rat CSF at 100 mg/kg, po after 4 hrs by immunoassay. The class given is functional, organism-based. Also on record: dose 100 mg/kg.
Data set [33] is described as follows: Oral bioavailability in cynomolgus monkey at 5 mg/kg. It is filed as ADME, organism-based, Macaca fascicularis. Particulars: in vivo.

Each structure is given as a SMILES string. The source made the active and inactive calls. The rule behind the calls is not given here.

Cytochrome P450 3A4, sequence (P08684 whole entry): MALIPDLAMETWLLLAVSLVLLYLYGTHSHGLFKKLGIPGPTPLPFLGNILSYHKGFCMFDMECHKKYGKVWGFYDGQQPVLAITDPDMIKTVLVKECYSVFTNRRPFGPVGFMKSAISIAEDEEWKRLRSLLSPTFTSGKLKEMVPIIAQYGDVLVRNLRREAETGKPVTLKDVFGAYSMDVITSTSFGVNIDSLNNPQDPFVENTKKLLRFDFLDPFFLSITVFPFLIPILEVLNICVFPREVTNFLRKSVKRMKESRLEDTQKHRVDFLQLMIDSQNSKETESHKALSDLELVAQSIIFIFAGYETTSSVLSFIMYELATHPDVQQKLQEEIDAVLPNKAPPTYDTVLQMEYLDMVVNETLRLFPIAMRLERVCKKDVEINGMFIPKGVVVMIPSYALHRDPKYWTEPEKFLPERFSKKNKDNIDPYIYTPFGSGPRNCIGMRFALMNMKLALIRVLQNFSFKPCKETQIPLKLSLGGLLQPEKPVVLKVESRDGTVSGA
Cytochrome P450 2D6, sequence (P10635 whole entry): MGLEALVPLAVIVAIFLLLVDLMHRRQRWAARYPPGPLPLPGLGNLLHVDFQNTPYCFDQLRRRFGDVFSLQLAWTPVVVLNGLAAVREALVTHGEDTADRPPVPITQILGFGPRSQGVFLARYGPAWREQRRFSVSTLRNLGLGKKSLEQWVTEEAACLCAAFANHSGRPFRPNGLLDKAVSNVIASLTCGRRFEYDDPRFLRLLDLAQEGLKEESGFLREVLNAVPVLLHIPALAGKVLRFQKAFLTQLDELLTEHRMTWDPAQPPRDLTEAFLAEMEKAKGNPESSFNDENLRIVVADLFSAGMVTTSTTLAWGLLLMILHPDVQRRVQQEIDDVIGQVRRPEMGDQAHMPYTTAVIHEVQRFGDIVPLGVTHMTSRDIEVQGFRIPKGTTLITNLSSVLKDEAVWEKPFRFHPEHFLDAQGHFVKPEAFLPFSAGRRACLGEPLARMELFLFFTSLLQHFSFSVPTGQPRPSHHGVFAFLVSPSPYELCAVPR

In the case of `Cc1cc(-c2ccc(NS(=O)(=O)c3cc(Cl)cc(Cl)c3)cc2)ccn1`, the microsomal CLint at 1 µM is 497 µL/min/mg in data set [1] and > 399 µL/min/mg in [4]. Besides, the IC50 worked out at 4700 nM on Cytochrome P450 3A4, 9800 nM against Cytochrome P450 2D6 and 720 nM at Gamma-secretase [2]. The Kp at 2 h in data set [3] stood at 0.1.

With `Cc1cc(-c2ccc(NC(=O)[C@H](CC(C)C)c3cccc(-c4ccc(N5CCOCC5)cc4)c3)cc2)ccn1`, the Papp in [5] was < 1 ×10⁻⁶ cm/s. Further, the concentration in data set [6] turned out to be 2 nM. This compound came in with an Activity in the data set on Rattus norvegicus [7] of 27%. Further, the IC50 at Gamma-secretase [2] was found to be 20 nM. The “Cp(f)” value in the data set with Plasma [8] amounted to 290 nM.

Turning to `Cc1cc(-c2ccc(NC(=O)[C@@H](C)c3cc(C(F)(F)F)cc(C(F)(F)F)c3)cc2)ccn1`, the microsomal CLint at 1 µM in data set [1] and in [4] was < 14 µL/min/mg in each case. Also, the IC50 was > 27000 nM at Cytochrome P450 3A4, 2600 nM at Cytochrome P450 2D6 and > 10000 nM at Gamma-secretase [2]. In addition, the result with Rattus norvegicus [7] was inactive. In addition, the Kp in [9] came to 2.

In the case of `Cc1cc(-c2ccc(NC(=O)[C@H](C)c3cc(C(F)(F)F)cc(C(F)(F)F)c3)cc2)ccn1`, the microsomal CLint at 1 µM in [1] and in [4] was < 14 µL/min/mg in each case. In addition, the Drug uptake result in the data set on Plasma [10] and with Brain was “Active” in each case. Besides, the Papp in data set [5] worked out at 7.8 ×10⁻⁶ cm/s. The Vd in data set [11] was 3.1 L/kg; in data set [23], 4.3 L/kg. In addition, the outcome in the data set with Rattus norvegicus [12] was Active. Also, the Activity result is given as “Non-toxic” in the data set on Rattus norvegicus [13]; 41% with Rattus norvegicus [7]; 44% in the data set on Rattus norvegicus [17]; 33% in the data set on Rattus norvegicus [19]; “Non-toxic” with Rattus norvegicus [20]; 32% in the data set with Rattus norvegicus [21]. In the data set with Rattus norvegicus [31], this compound yielded an Activity of 55%. For the same compound, the IC50 on Cytochrome P450 3A4 is > 27000 nM; on Cytochrome P450 2D6, 4100 nM; on Gamma-secretase [2], 260 nM; at Gamma-secretase [29], 3100 nM; at Gamma-secretase [30], 11800 nM. Moreover, in data set [14], the Ratio IC50 was 45. The Ratio in data set [15] was 2. Also, in data set [16], the efflux ratio worked out at 1.2. In addition, the bioavailability was determined as 100% in data set [18] and 56% in data set [33]. Further, the results for the clearance in data set [22] and in data set [24] were 9.67 mL/min/kg and 2.67 mL/min/kg, respectively. Further, in the data set with Plasma [25], the “Cp(f)” value was found to be 0.57 nM. For the same compound, the half-life in data set [26] is 15.9 h; in [27] it was 6 h. Besides, the Kp in [9] is 2. Moreover, the outcome in the data set with Rattus norvegicus [28] and in the data set on Rattus norvegicus [32] was inactive.

With `CCN(CC)c1ccc(C)c(Nc2nc(-c3ccc(-n4cnc(C)c4)cc3)cs2)c1`, the IC50 on Gamma-secretase [2] was 130 nM; on Gamma-secretase [29], 560 nM.

Turning to `O=S(=O)(Nc1ccc(-c2nnco2)cc1)c1cc(Cl)cc(Cl)c1`, the microsomal CLint at 1 µM turned out to be 94 µL/min/mg in data set [1] and 287 µL/min/mg in [4]. For the same compound, the IC50 against Cytochrome P450 3A4 came out at 27000 nM; against Cytochrome P450 2D6 it was 15100 nM; on Gamma-secretase [2] it was 2440 nM. Further, in [3], the Kp at 2 h is 0.16.

Take `Cc1cc(-c2ccc(NS(=O)(=O)c3cc(C(F)(F)F)cc(C(F)(F)F)c3)cc2)ccn1`: the microsomal CLint at 1 µM in data set [1] turned out to be 399 µL/min/mg; in data set [4], 290 µL/min/mg. Also, the concentration for half-maximal inhibition (IC50) at Cytochrome P450 3A4 is > 27000 nM; on Cytochrome P450 2D6 it was 2000 nM; on Gamma-secretase [2] it was 280 nM.

As usually defined, the IC50 is the concentration that gives 50% inhibition. Usually Papp stands for the rate of passage across a membrane or cell layer, normalised by area and donor concentration. The efflux ratio is the permeability from basolateral to apical divided by that in the opposite direction, in the common usage. A word on the bioavailability: it is dose-corrected exposure relative to a reference, in per cent. What is called clearance is the rate of elimination divided by the concentration. In general, half-life refers to how long it takes for the measured level to halve.

(Values after ChEMBL document CHEMBL3085750, “Discovery of 2-methylpyridine-based biaryl amides as γ-secretase modulators for the treatment of Alzheimer's disease” (Bioorg Med Chem Lett, 2013).)
